According to patent US20230416199A1, “INHIBITORS OF AMINO ACID TRANSPORT” (ICAHN SCHOOL OF MEDICINE AT MOUNT SINAI, priority 2020, published 2023):
Where two headings read alike, the source gives them in different places.

Assays:
Assay type in all cases: cell-based
rASCT2 = biological target: T1, rASCT2 (Rattus norvegicus, UniProt D3ZJ25); test: Electrophysiology (whole-cell current recording) of transfected HEK293 cells, rASCT2
T1 construct: expressed in transfected cells; host or cells: HEK293 (ATCC CRL-11268), transient transfection
T1 sequence (D3ZJ25 1-555): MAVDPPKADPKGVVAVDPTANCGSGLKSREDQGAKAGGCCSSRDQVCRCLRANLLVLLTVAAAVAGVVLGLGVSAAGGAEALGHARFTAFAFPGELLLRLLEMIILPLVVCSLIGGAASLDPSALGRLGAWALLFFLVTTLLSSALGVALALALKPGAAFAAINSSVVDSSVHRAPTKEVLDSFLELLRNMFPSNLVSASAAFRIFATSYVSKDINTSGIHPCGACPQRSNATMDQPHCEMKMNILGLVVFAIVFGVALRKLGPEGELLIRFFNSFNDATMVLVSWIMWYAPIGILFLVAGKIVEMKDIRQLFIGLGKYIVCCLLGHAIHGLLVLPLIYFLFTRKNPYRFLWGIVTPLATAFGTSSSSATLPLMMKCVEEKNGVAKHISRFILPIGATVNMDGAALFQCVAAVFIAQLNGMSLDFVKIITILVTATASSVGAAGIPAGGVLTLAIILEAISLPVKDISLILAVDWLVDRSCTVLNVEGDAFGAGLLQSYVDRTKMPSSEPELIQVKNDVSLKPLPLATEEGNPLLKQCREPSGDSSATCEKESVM
Experimental: (§1) Human embryonic kidney 293 (HEK293, ATCC CRL-11268) cells were cultured in DMEM media supplemented with 10% (v v) fetal bovine serum (FBS), 2 mM glutamine, 1% penicillin streptomycin solution, 1 mM sodium pyruvate and non-essential amino acids. Cells were maintained at 37° C. in a fully humidified atmosphere containing 5% CO2. rASCT2, hASCT2, hASCT1, EAAT1, EAAT2, EAAC1, EAAT5 and YFP complementary DNAs were each used to transiently transfect HEK293 using POLYPLUS Jet-prime transfection reagent. Cells were analyzed using electrophysiological techniques 24-40 hours after transfection.
(§2) Stock solutions of inhibitor was prepared in dimethyl sulfoxide (DMSO) up to 100 mM. Dilutions to working concentrations were made using external buffer. […] For rASCT2, hASCT2 and hASCT1, external buffer contained 140 mM NaCl, 2 mM MgCl2, 2 mM CaCl2), and 10 mM HEPES, pH 7.40 while internal pipette solution comprised of 130 mM NaSCN, 2 mM MgCl2, 10 mM EGTA, 10 mM HEPES and 10 mM alanine, pH 7.40. For specificity experiments with EAAT1, EAAT2, EAAC1 and EAAT5, internal solution contained 10 mM glutamate instead of alanine. Compounds were applied to HEK293 cells expressing DNA of interest suspended from a current recording electrode in whole cell configuration through a rapid solution exchange device. Cells are immersed in external buffer bath used to dissolve the inhibitors. The open pipette resistance was between 3 and 6 MΩ. Series resistance was not compensated in these experiments due to relatively small currents. Currents traces were recorded using an Adams and List EPC7 amplifier and digitized using a Molecular Devices Digidata A/D converter.
(§3) Linear and nonlinear curve fitting of the experimental data were analyzed using MicroCal Origin software. Nonlinear dose-response relationships were fitted with a Michaelis-Menten-like equation to obtain apparent Ki values in the absence of substrate (see TABLE 2 for Ki values). The figures show representative current traces and dose-response curves for hACST2 and rASCT2, used to obtain Ki values in TABLE 2 for compound SN 40. At least four experiments were performed with at least three different cells. Error bars in all graphs, e.g., in FIG. 1B and FIG. 1C and tables (Ki values) represent mean±SD.

hASCT2 [1] = biological target: T2, hASCT2 (Homo sapiens, UniProt Q15758); test: Electrophysiology (whole-cell current recording) of transfected HEK293 cells, hASCT2
T2 construct: expressed in transfected cells; host or cells: HEK293 (ATCC CRL-11268), transient transfection
T2 sequence (Q15758 1-541): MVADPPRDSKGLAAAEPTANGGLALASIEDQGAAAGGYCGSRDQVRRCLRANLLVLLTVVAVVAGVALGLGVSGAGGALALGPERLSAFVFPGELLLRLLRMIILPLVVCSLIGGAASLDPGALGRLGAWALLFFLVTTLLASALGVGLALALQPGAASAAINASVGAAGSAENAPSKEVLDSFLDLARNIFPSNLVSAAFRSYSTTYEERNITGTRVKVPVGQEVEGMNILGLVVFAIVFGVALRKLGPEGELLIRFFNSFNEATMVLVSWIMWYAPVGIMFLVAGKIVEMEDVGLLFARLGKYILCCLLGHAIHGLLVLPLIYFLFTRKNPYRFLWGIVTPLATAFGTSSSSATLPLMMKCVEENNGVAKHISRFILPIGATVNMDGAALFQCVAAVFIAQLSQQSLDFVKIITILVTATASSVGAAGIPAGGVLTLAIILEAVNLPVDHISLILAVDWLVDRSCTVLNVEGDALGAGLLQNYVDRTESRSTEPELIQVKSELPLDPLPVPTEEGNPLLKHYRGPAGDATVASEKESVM
Experimental: as §1, §2, §3

hASCT1 = biological target: T3, hASCT1 (Homo sapiens, UniProt P43007); test: Electrophysiology (whole-cell current recording) of transfected HEK293 cells, hASCT1
T3 construct: expressed in transfected cells; host or cells: HEK293 (ATCC CRL-11268), transient transfection
T3 sequence (P43007 1-532): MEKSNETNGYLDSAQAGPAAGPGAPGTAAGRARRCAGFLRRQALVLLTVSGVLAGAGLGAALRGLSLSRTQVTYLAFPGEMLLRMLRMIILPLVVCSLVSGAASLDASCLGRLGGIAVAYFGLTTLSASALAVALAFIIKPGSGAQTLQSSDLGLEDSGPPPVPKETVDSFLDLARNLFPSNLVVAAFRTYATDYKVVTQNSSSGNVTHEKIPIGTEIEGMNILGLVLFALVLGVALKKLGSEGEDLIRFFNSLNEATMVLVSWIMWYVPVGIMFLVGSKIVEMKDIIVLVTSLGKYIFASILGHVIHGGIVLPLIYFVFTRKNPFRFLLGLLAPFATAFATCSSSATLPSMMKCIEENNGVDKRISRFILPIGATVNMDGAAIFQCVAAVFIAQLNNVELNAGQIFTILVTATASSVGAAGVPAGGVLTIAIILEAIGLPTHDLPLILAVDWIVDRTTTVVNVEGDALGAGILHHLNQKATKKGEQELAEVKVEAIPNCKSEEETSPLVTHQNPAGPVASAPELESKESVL
Experimental: as §1, §2, §3

hASCT2 [2] = biological target: T2, hASCT2; test: Competition experiment with alanine, hASCT2; details: 1 mM ala, first entry of the cell
EAAT2 = biological target: T4, EAAT2 (Homo sapiens, UniProt P43004); test: Electrophysiology specificity experiment in transfected HEK293 cells, EAAT2; details: Table 3, dihydroxyproline derivatives; read-out: Ki All DNA: EAAT2
T4 construct: expressed in transfected cells; host or cells: HEK293 (ATCC CRL-11268), transient transfection
Experimental: as §1, §2, §3

EAAT1 = biological target: T5, EAAT1 (Homo sapiens, UniProt P43003); test: Electrophysiology specificity experiment in transfected HEK293 cells, EAAT1; details: apparent Ki, HEK293, internal solution 10 mM glutamate, mean ± SD
T5 construct: expressed in transfected cells; host or cells: HEK293 (ATCC CRL-11268), transient transfection
Experimental: as §1, §2, §3

[3] = apparent Ki in the absence of substrate, HEK293, mean ± SD, read-out: Ki rASCT2
[4] = Table 3, dihydroxyproline derivatives, read-out: Ki All DNA: rASCT2
[5] = Table 3, dihydroxyproline derivatives, read-out: Ki All DNA: hASCT2
[6] = Table 3, dihydroxyproline derivatives, read-out: Ki All DNA: hASCT1
[7] = apparent Ki in the absence of substrate, HEK293, mean ± SD, read-out: Ki hASCT2
[8] = apparent Ki in the absence of substrate, HEK293, mean ± SD, read-out: Ki hASCT1

T4 sequence (P43004 whole entry, species assumed): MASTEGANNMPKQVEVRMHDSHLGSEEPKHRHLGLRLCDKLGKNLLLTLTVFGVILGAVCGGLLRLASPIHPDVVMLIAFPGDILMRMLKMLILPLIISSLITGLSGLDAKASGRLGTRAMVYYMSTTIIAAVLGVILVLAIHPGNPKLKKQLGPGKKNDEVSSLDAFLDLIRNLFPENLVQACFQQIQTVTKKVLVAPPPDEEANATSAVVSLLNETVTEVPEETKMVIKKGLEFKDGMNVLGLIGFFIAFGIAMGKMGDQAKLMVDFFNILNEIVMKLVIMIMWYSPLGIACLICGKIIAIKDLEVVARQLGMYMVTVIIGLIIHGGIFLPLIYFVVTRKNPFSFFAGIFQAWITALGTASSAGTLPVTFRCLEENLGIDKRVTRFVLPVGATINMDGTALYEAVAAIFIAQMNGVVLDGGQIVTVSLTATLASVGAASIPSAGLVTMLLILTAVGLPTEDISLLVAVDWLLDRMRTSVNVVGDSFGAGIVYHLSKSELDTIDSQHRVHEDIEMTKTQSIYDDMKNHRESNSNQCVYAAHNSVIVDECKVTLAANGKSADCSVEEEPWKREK
T5 sequence (P43003 whole entry, species assumed): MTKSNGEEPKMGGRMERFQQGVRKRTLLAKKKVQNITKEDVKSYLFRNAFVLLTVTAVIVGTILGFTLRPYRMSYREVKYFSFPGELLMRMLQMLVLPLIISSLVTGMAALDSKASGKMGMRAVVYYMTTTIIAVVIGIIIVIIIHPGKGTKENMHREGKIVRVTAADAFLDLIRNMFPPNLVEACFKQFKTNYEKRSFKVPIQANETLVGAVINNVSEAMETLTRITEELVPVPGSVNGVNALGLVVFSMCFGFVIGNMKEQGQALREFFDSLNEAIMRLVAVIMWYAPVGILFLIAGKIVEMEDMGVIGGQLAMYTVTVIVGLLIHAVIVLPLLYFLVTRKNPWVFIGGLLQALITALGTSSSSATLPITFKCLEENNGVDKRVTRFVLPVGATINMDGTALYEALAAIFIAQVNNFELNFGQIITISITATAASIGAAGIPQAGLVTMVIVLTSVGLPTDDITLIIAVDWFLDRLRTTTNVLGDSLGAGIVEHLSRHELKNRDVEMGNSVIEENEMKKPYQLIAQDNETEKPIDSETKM

Structure (SMILES)	Ki (rASCT2; [3]) [µM]	Ki (rASCT2; [4]) [µM]	Ki (hASCT2 [1]; [5]) [µM]	Ki (hASCT2 [1]; [7]) [µM]	also measured
N[C@@H](COC(=O)c1ccc(C(=O)c2ccccc2)cc1)C(=O)O [SN 26]	22 ± 4.5				
O=C(OC[C@@]1(O)CN[C@H](C(=O)O)C1)c1ccc(C(O)c2ccccc2)cc1 (some centres unmarked) [SN63]		232	405		Ki (hASCT1; [6]): 93 µM
O=C(Nc1ccc(C(=O)N[C@@H]2CN[C@H](C(=O)O)C2)cc1)c1ccccc1 [SN 48]	12.4 ± 1.8			17.3 ± 2.1	Ki (hASCT1; [8]): 7.9 ± 0.5 µM
N[C@@H](COC(=O)c1ccc(C(O)c2ccccc2)cc1)C(=O)O (some centres unmarked) [SN 27]	5.17 ± 1.2				
O=C(O[C@]1(CO)CN[C@H](C(=O)O)C1)c1ccc(-c2ccccc2)cc1 [SN73]		8.03	4.25		Competition Expt % block (given as a decimal): hASCT2 (hASCT2 [2]): full; Ki (hASCT2 [2]; read-out: Competition Expt (h/rASCT2 Ki): hASCT2 Ki): 22.3 µM; Ki (EAAT2): 21.4 µM
N[C@@H](COCc1ccc(-c2ccccc2)cc1)C(=O)O [SN 38]	0.38 ± 0.17				
O=C(Nc1ccc(CN[C@@H]2CN[C@H](C(=O)O)C2)cc1)c1ccccc1 [SN 43]	27.2 ± 1.9			33.6 ± 2.5	Ki (hASCT1; [8]): 20 ± 2.3 µM
O=C(OC[C@@]1(O)CN[C@H](C(=O)O)C1)c1ccc(-c2cccc(F)c2)cc1F [SN60]		4.87	4.61		Ki (hASCT1; [6]): 8.15 µM
N[C@@H](COC(=O)c1ccc(-c2cccc(F)c2)cc1F)C(=O)O [SN 24]	19.7 ± 3.1				
O=C(O[C@]1(CO)CN[C@H](C(=O)O)C1)c1ccc(Oc2ccccc2)cc1 [SN76]		20	31.9		Ki (hASCT1; [6]): 12.2 µM
O=C(O[C@@H]1CN[C@H](C(=O)O)C1)c1cccc(-c2ccccc2)c1 [SN 06]	5.63 ± 1			5.56 ± 4.7	
O=C(O[C@@H]1CN[C@H](C(=O)O)C1)c1ccc(-c2ccccn2)cc1 [SN 18]	2.79 ± 0.7			3.01 ± 0.5	Ki (hASCT1; [8]): 7.01 ± 2.1 µM; Ki (EAAT1): 12.4 ± 1 µM
N[C@H](C(=O)O)[C@H](O)COC(=O)c1ccc(-c2ccccc2)cc1 [SN 35]	4.83 ± 1			0.84 ± 0.2	
O=C(O[C@]1(CO)CN[C@H](C(=O)O)C1)c1ccc(-c2ccc(C(F)(F)F)cc2)cc1 [SN75]		3.31	8.07		Ki (hASCT1; [6]): 1.17 µM
O=C(O[C@@H]1CN[C@H](C(=O)O)C1)c1c2ccccc2cc2ccccc12 [SN 22]	10 ± 5.1				
O=C(N[C@@H]1CN[C@H](C(=O)O)C1)c1ccc(-c2ccccc2)cc1 [SN 45]	1.68 ± 0.6			4.69 ± 1.1	
